Patent US20100069494A1, “LOWERING OF PROTEINS ASSOCIATED WITH ALZHEIMER'S DISEASE BY INTERRUPTING GENE TRANSCRIPTION WITH A SMALL MOLECULE” (BOARD OF GOVERNORS FOR HIGHER EDUCATION, STATE OF RHODE …, priority 2007, published 2010)

Columns and labels:
SP1 = target: T1, SP1 (Mus musculus, UniProt O89090); test: Oral tolfenamic acid in mice, Western blot of SP1 in brain; assay type: in vivo, mice (C57BL/6); details: oral gavage 10 or 50 mg/Kg in corn oil on alternate days, Western blot (FIG. 6A)
T1 construct: various brain regions were isolated and stored at −70° C; from tissue; host or cells: brain of adult C57BL/6 mice
T1 sequence (O89090 whole entry): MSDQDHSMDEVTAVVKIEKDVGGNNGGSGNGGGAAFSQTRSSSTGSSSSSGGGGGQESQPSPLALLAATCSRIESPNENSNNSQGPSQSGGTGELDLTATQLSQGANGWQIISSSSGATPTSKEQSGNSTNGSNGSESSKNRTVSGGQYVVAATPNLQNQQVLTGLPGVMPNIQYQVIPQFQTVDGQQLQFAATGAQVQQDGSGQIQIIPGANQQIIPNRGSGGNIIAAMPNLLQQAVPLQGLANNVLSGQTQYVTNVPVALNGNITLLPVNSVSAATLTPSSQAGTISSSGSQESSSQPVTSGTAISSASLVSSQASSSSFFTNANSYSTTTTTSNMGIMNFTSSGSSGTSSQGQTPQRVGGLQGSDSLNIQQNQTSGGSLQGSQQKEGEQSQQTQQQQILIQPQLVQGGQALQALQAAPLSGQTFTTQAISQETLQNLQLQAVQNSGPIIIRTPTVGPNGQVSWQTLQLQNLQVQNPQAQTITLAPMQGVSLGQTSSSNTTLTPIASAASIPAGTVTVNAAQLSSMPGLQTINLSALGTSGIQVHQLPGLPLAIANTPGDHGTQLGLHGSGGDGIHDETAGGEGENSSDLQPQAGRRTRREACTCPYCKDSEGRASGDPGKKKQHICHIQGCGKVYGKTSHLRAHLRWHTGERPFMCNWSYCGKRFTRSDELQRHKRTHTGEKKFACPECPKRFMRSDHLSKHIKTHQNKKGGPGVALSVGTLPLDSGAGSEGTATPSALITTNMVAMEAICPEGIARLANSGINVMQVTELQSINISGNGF
Experimental: (§1) The Oral Administration of Tolfenamic acid to mice lowers SP1, APP, and Aβ levels in the brain (See FIG. 6). Mice were dosed on alternate days by oral gavage with 10 or 50 mg/Kg of tolfenamic acid in corn oil or vehicle alone. Tolfenamic acid (TFA) lowered APP levels by about 50% and Aβ by about 20%. […] FIG. 6A is a representative Western blot of SP1. FIG. 6B is a Western blot analysis of APP expressed as a ratio of a housekeeping gene, FIG. 6C is Aβ analysis by ELISA. Each bar represents the mean of data obtained from 6-9 animals. Data from both doses was combined after statistical analysis. Values marked with an ‘*’ are statistically significant, p<0.0.5.
Animal Exposure: Adult mice (C57BL/6) were obtained from Jackson labs (Maine). They were divided into 2 groups viz., Con (C), drug treated (D). The drug, toelfenamic acid was dissolved in corn oil and administered at various concentrations from 10 mg/Kg to 100 mg/Kg in corn oil by oral gavage. Control mice were dosed with corn oil only. Treatment was given on alternate days for one month. At the end of the exposure period the animals were decapitated following exposure to CO2 and hypothermia and various brain regions were isolated and stored at −70° C. This protocol has been approved by the IACUC of the University of Rhode Island. […]

APP = test: Oral tolfenamic acid in mice, Western blot analysis of APP in brain; assay type: in vivo, mice (C57BL/6); details: oral gavage 10 or 50 mg/Kg in corn oil on alternate days, ratio to housekeeping gene, both doses combined (FIG. 6B)
Experimental: as §1, with “p<0.0.5. Animal Exposure: Adult mice (C57BL/6) were obtained from Jackson labs (Maine). They were divided into 2 groups viz., Con (C), drug treated (D). The drug, toelfenamic acid was dissolved in corn oil and administered at various concentrations from 10 mg/Kg to 100 mg/Kg in corn oil by oral gavage. Control mice were dosed with corn oil only. Treatment was given on alternate days for one month. At the end of the exposure period the animals were decapitated following exposure to CO2 and hypothermia and various brain regions were isolated and stored at −70° C. This protocol has been approved by the IACUC of the University of Rhode Island. […]” for “p<0.0.5.”

Aβ = test: Oral tolfenamic acid in mice, Aβ analysis by ELISA in brain; assay type: in vivo, mice (C57BL/6); details: oral gavage 10 or 50 mg/Kg in corn oil on alternate days, both doses combined (FIG. 6C)
Experimental: The Oral Administration of Tolfenamic acid to mice lowers SP1, APP, and Aβ levels in the brain (See FIG. 6). Mice were dosed on alternate days by oral gavage with 10 or 50 mg/Kg of tolfenamic acid in corn oil or vehicle alone. Tolfenamic acid (TFA) lowered APP levels by about 50% and Aβ by about 20%. […] FIG. 6A is a representative Western blot of SP1. FIG. 6B is a Western blot analysis of APP expressed as a ratio of a housekeeping gene, FIG. 6C is Aβ analysis by ELISA. Each bar represents the mean of data obtained from 6-9 animals. Data from both doses was combined after statistical analysis. Values marked with an ‘*’ are statistically significant, p<0.0.5. Animal Exposure: Adult mice (C57BL/6) were obtained from Jackson labs (Maine). They were divided into 2 groups viz., Con (C), drug treated (D). The drug, toelfenamic acid was dissolved in corn oil and administered at various concentrations from 10 mg/Kg to 100 mg/Kg in corn oil by oral gavage. Control mice were dosed with corn oil only. Treatment was given on alternate days for one month. […] ELISA Assays: Aβ-40 and Aβ-42 levels were measured using a combination of monoclonal antibody (mAb) 6E10 (specific to an epitope present on 1-16 amino acid residues of Aβ) and R162, and R164 respectively in a double-antibody sandwich ELISA (Mehta et al., 1998; Morishima-Kawashima et al., 2000; Basha et al., 2005).

Sp1, Sp3 and Sp4 = details: pancreatic cancer cells and tumors; background statement; cited from earlier work

Structure (SMILES): Cc1c(Cl)cccc1Nc1ccccc1C(=O)O [Tolfenamic acid]
- SP1 levels in the brain (SP1): lowers
- lowering of APP levels (APP): about 50%
- lowering of Aβ levels (Aβ): about 20%
- degradation of Sp1, Sp3 and Sp4 (Sp1, Sp3 and Sp4): can induce proteasome-dependent degradation of Sp1, Sp3 and Sp4
